Measured values: patent US7311393B2, “Inkjet recording ink and method of inkjet recording” (Fujifilm Corporation, priority 2002, dated 2007)

Legend:
[1] = Oxidation potential of dye; assay type: physicochemical; conditions: comparative dyes
Method: More specifically, a test sample is dissolved to a concentration of 1×10^−4 to 1×10^−6 mol/liter in a solvent such as dimethylformamide or acetonitrile containing a supporting electrolyte such as sodium perchlorate or tetrapropylammonium perchlorate and the oxidation potential is measured as a value to SCE (saturated calomel electrode) by using a cyclic voltammetry or a direct current polarography. This value sometimes deviates on the order of tens of millivolt due to the effect of liquid junction potential, liquid resistance of sample solution, or the like, but the reproducibility of potential can be guaranteed by adding a standard sample (for example, hydroquinone).
In order to univocally specify the potential, in the present invention, the value (vs SCE) measured by a direct current polarography in a dimethylformamide (concentration of dye: 0.001 mol dm^−3) containing 0.1 mol dm^−3 of tetrapropylammonium perchlorate as the supporting electrolyte is used as the oxidation potential of the dye.

[2] = Spectral absorption characteristics of dye; assay type: physicochemical; conditions: comparative dyes
Source text: The dye for use in the present invention preferably has good fastness and also has good color hue, particularly, no tailing on the long-wave side in the absorption spectrum. […]

Row | Compound | oxidation potential [1] | I(λmax)/I(λmax+70 nm) [2]
1 | Direct Yellow 11 [Dye (D)] | ≤ 1.0 V (vs SCE) | > 0.4
2 | Cc1nn(-c2ccc(S(=O)(=O)[O-])cc2)c(O)c1/N=N/c1cccc(S(=O)(=O)Nc2cc(C(=O)[O-])cc(C(=O)[O-])c2)c1.[K+].[K+].[K+] [Dye (C)] | ≤ 1.0 V (vs SCE) | ≤ 0.4
